Measured values as given in ChEMBL document CHEMBL4732114, “Design and structural optimization of novel 2H-benzo[h]chromene derivatives that target AcrB and reverse bacterial multidrug resistance” (Eur J Med Chem, 2021).
Values after ≈ are worked out from the molar mass of the structure shown.

How the values were obtained:
[1] = target: T1, Multidrug efflux pump subunit AcrB (Escherichia coli (strain K12)) (UniProt P31224); assay: Inhibition of AcrB in multidrug-resistant Escherichia coli BW25113 assessed as potentiation of tetraphenylphosphonium-induced antibacterial activity by measuring tetraphenylphosphonium MIC at 256 ug/ml by checkerboard titration method (reference value: 1024 ug/ml); conditions: dose 256.0 µg/ml
T1 sequence (whole entry): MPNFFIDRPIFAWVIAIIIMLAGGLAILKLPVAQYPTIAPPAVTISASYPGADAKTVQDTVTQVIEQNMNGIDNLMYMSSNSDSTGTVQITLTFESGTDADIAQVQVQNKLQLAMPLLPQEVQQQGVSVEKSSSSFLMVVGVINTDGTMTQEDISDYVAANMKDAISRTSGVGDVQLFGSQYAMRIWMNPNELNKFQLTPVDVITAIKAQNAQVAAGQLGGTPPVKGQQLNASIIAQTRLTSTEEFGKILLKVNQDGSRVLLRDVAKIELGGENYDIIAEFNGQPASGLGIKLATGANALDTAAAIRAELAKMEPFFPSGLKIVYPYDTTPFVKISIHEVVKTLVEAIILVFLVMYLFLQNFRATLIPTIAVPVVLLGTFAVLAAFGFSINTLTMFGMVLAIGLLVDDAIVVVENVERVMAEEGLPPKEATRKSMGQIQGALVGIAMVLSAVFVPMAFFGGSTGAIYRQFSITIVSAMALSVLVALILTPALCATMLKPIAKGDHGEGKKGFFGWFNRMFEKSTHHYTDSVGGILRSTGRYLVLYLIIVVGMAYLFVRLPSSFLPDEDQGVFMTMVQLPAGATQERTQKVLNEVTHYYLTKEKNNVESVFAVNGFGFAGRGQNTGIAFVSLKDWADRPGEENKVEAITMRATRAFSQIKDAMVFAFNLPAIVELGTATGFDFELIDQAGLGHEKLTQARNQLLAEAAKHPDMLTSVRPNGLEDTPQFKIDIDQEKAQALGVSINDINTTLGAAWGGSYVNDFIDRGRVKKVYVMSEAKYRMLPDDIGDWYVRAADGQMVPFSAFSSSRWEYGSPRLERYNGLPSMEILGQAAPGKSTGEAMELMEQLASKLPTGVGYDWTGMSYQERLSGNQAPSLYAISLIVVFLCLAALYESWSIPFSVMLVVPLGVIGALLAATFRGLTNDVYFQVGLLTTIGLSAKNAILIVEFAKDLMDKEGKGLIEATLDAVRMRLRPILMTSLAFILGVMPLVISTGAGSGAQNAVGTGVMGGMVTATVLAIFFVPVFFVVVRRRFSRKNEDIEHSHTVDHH

[2] = target: T1, Multidrug efflux pump subunit AcrB (Escherichia coli (strain K12)); assay: Inhibition of AcrB in multidrug-resistant Escherichia coli BW25113 assessed as potentiation of chloramphenicol-induced antibacterial activity by measuring chloramphenicol MIC at 256 ug/ml by checkerboard titration method (reference value: 8 ug/ml); conditions: dose 256.0 µg/ml
[3] = target: T1, Multidrug efflux pump subunit AcrB (Escherichia coli (strain K12)); assay: Inhibition of AcrB in multidrug-resistant Escherichia coli BW25113 assessed as potentiation of erythromycin-induced antibacterial activity by measuring erythromycin MIC at 256 ug/ml by checkerboard titration method (reference value: 64 ug/ml); conditions: dose 256.0 µg/ml
[4] = target: T1, Multidrug efflux pump subunit AcrB (Escherichia coli (strain K12)); conditions: Escherichia coli BW25113; dose 256.0 µg/ml
[5] = target: T1, Multidrug efflux pump subunit AcrB (Escherichia coli (strain K12)); assay: Inhibition of AcrB in multidrug-resistant Escherichia coli BW25113 assessed as potentiation of chloramphenicol-induced antibacterial activity by measuring chloramphenicol MIC at 512 ug/ml by checkerboard titration method (reference value: 8 ug/ml); conditions: dose 512.0 µg/ml
[6] = target: T1, Multidrug efflux pump subunit AcrB (Escherichia coli (strain K12)); assay: Inhibition of AcrB in multidrug-resistant Escherichia coli BW25113 assessed as potentiation of tetraphenylphosphonium-induced antibacterial activity by measuring tetraphenylphosphonium MIC at 512 ug/ml by checkerboard titration method (reference value: 1024 ug/ml); conditions: dose 512.0 µg/ml
[7] = target: T1, Multidrug efflux pump subunit AcrB (Escherichia coli (strain K12)); conditions: Escherichia coli BW25113; dose 512.0 µg/ml
[8] = target: T1, Multidrug efflux pump subunit AcrB (Escherichia coli (strain K12)); assay: Inhibition of AcrB in multidrug-resistant Escherichia coli BW25113 assessed as potentiation of erythromycin-induced antibacterial activity by measuring erythromycin MIC at 512 ug/ml by checkerboard titration method (reference value: 64 ug/ml); conditions: dose 512.0 µg/ml
[9] = target: T1, Multidrug efflux pump subunit AcrB (Escherichia coli (strain K12)); assay: Inhibition of AcrB in multidrug-resistant Escherichia coli BW25113 assessed as potentiation of levofloxacin-induced antibacterial activity by measuring levofloxacin MIC at 512 ug/ml by checkerboard titration method (reference value: 0.06 ug/ml); conditions: dose 512.0 µg/ml
[10] = target: T1, Multidrug efflux pump subunit AcrB (Escherichia coli (strain K12)); assay: Inhibition of AcrB in multidrug-resistant Escherichia coli BW25113 assessed as potentiation of levofloxacin-induced antibacterial activity by measuring levofloxacin MIC at 256 ug/ml by checkerboard titration method (reference value: 0.06 ug/ml); conditions: dose 256.0 µg/ml

Compound: CC(C)CCOc1cc(C(N)=O)cc2ccccc12
- MIC [1]: 512 µg/mL
- MIC [2]: 8 µg/mL
- MIC [3]: 64 µg/mL
- MIC [4]: 16 µg/mL (≈ 62.2 µM)
- MIC [5]: 4 µg/mL
- MIC [6]: 256 µg/mL
- MIC [7]: 16 µg/mL (≈ 62.2 µM)
- MIC [8]: 32 µg/mL
- MIC [9]: 0.06 µg/mL
- MIC [10]: 0.06 µg/mL
